In PubChem BioAssay (NCI):
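Protocol summary: plate cells (96-well), add compound at 5 concentrations, incubate 48 h, interpolate endpoints linearly. At the TGI there is no net growth.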

Key:
Assay in all cases: DTP human tumour cell line panel, 48 h
786-0 renal = tested on: 786-0 renal
A498 renal = tested on: A498 renal
A549 NSCLC = tested on: A549 NSCLC
ACHN renal = tested on: ACHN renal
CAKI-1 renal = tested on: CAKI-1 renal
CCRF-CEM leukemia = tested on: CCRF-CEM leukemia
COLO 205 colon = tested on: COLO 205 colon
DMS 114 small cell lung = tested on: DMS 114 small cell lung
DMS 273 small cell lung = tested on: DMS 273 small cell lung
EKVX NSCLC = tested on: EKVX NSCLC
HCC-2998 colon = tested on: HCC-2998 colon
HCT-116 colon = tested on: HCT-116 colon
HCT-15 colon = tested on: HCT-15 colon
HL-60(TB) leukemia = tested on: HL-60(TB) leukemia
HOP-62 NSCLC = tested on: HOP-62 NSCLC
HOP-92 NSCLC = tested on: HOP-92 NSCLC
HT29 colon = tested on: HT29 colon
IGROV1 ovarian = tested on: IGROV1 ovarian
K-562 leukemia = tested on: K-562 leukemia
KM12 colon = tested on: KM12 colon
KM20L2 colon = tested on: KM20L2 colon
LOX IMVI melanoma = tested on: LOX IMVI melanoma
LXFL 529 NSCLC = tested on: LXFL 529 NSCLC
M14 melanoma = tested on: M14 melanoma
M19-MEL melanoma = tested on: M19-MEL melanoma
MALME-3M melanoma = tested on: MALME-3M melanoma
MOLT-4 leukemia = tested on: MOLT-4 leukemia
NCI-H226 lung = tested on: NCI-H226 lung
NCI-H23 lung = tested on: NCI-H23 lung
NCI-H460 lung = tested on: NCI-H460 lung
NCI-H522 lung = tested on: NCI-H522 lung
OVCAR-3 ovarian = tested on: OVCAR-3 ovarian
OVCAR-4 ovarian = tested on: OVCAR-4 ovarian
OVCAR-5 ovarian = tested on: OVCAR-5 ovarian
OVCAR-8 ovarian = tested on: OVCAR-8 ovarian
RPMI-8226 leukemia = tested on: RPMI-8226 leukemia
SF-268 CNS = tested on: SF-268 CNS
SF-295 CNS = tested on: SF-295 CNS
SF-539 CNS = tested on: SF-539 CNS
SK-MEL-2 melanoma = tested on: SK-MEL-2 melanoma
SK-MEL-28 melanoma = tested on: SK-MEL-28 melanoma
SK-MEL-5 melanoma = tested on: SK-MEL-5 melanoma
SK-OV-3 ovarian = tested on: SK-OV-3 ovarian
SN12C renal = tested on: SN12C renal
SNB-19 CNS = tested on: SNB-19 CNS
SNB-78 CNS = tested on: SNB-78 CNS
SR leukemia = tested on: SR leukemia
SW-620 colon = tested on: SW-620 colon
TK-10 renal = tested on: TK-10 renal
U251 CNS = tested on: U251 CNS
UACC-257 melanoma = tested on: UACC-257 melanoma
UACC-62 melanoma = tested on: UACC-62 melanoma
UO-31 renal = tested on: UO-31 renal
XF 498 CNS = tested on: XF 498 CNS
DLD-1 colon = tested on: DLD-1 colon
RXF 393 renal = tested on: RXF 393 renal
SNB-75 CNS = tested on: SNB-75 CNS

Measured: TGI

CCOC(=O)/C(=C/c1ccc(OC)cc1)N(CC)CC
not listed: DLD-1 colon | RXF 393 renal | SNB-75 CNS
> 100 µM: all other assays above

Cc1nc(-c2nc(C)c(C(=O)NNC(=O)C[n+]3ccccc3)s2)sc1C(=O)NNC(=O)C[n+]1ccccc1
84.3 µM: SNB-75 CNS
80.5 µM: UO-31 renal
85.1 µM: CAKI-1 renal
not listed: DMS 273 small cell lung | NCI-H522 lung | OVCAR-4 ovarian | SR leukemia | XF 498 CNS
> 100 µM: all other assays above
